Test results reported in PubChem BioAssay AID1918938 (Molecular Pharmacology Branch, DTP, NCI, 2023).

Test system: 556581-035-R-J1-PDC complex spheroid viability
Assay: Anticancer human tumor 556581-035-R-J1-PDC patient-derived ovarian carcinoma cell line growth inhibition
Conditions: for IC50: curve of first compound; for viability, T/C: stronger effect = lower value
Summary of the method: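 Complex spheroids of tumor cells with HUVEC and human MSCs, exposed to iadademstat combined with other agents. Each agent tested in half-log steps from near clinical Cmax (else 10 microM top), DMSO ≤0.25%.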
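Also: spheroids exposed to agents for seven days.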
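For viability, T/C in this document: 100% = DMSO vehicle control wells.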

**Q.** Which IC50 (second compound 0.1 µM) does the source give for `CC[C@@]1(O)C(=O)OCc2c1cc1n(c2=O)Cc2cc3c(CN(C)C)c(O)ccc3nc2-1` + NC1CCC(NC2CC2c2ccccc2)CC1 here?
**A.** 14.7 nM

**Q.** What about the IC50 (second compound 0.316 µM) of the same molecule?
**A.** 13.9 nM

**Q.** And the IC50 (second compound 1 µM)?
**A.** 14.4 nM

**Q.** What about the IC50 (second compound 3.16 µM) of the same molecule?
**A.** 18.8 nM

**Q.** What about the IC50 (second compound 10 µM) of the same molecule?
**A.** 11.5 nM

**Q.** And the viability, T/C (second compound 0.1 µM, first compound 0.000316 µM)?
**A.** 78.7%

**Q.** What about the viability, T/C (second compound 0.1 µM, first compound 0.001 µM) of the same molecule?
**A.** 91.5%

**Q.** What about the viability, T/C (second compound 0.1 µM, first compound 0.00316 µM) of the same molecule?
**A.** 79%

**Q.** What about the viability, T/C (second compound 0.1 µM, first compound 0.01 µM) of the same molecule?
**A.** 57.6%

**Q.** And the viability, T/C (second compound 0.1 µM, first compound 0.0316 µM)?
**A.** 31.9%

**Q.** What about the viability, T/C (second compound 0.1 µM, first compound 0.1 µM) of the same molecule?
**A.** 9.52%

**Q.** What about the viability, T/C (second compound 0.316 µM, first compound 0.000316 µM) of the same molecule?
**A.** 91.4%

**Q.** What about the viability, T/C (second compound 0.316 µM, first compound 0.001 µM) of the same molecule?
**A.** 82.2%

**Q.** What about the viability, T/C (second compound 0.316 µM, first compound 0.00316 µM) of the same molecule?
**A.** 81.8%

**Q.** And the viability, T/C (second compound 0.316 µM, first compound 0.01 µM)?
**A.** 55%

**Q.** And the viability, T/C (second compound 0.316 µM, first compound 0.0316 µM)?
**A.** 32.5%

**Q.** What about the viability, T/C (second compound 0.316 µM, first compound 0.1 µM) of the same molecule?
**A.** 13.3%

**Q.** And the viability, T/C (second compound 1 µM, first compound 0.000316 µM)?
**A.** 79%

**Q.** And the viability, T/C (second compound 1 µM, first compound 0.001 µM)?
**A.** 81.3%

**Q.** And the viability, T/C (second compound 1 µM, first compound 0.00316 µM)?
**A.** 72.2%

**Q.** What about the viability, T/C (second compound 1 µM, first compound 0.01 µM) of the same molecule?
**A.** 58%

**Q.** And the viability, T/C (second compound 1 µM, first compound 0.0316 µM)?
**A.** 32.8%

**Q.** What about the viability, T/C (second compound 1 µM, first compound 0.1 µM) of the same molecule?
**A.** 10.1%

**Q.** What about the viability, T/C (second compound 3.16 µM, first compound 0.000316 µM) of the same molecule?
**A.** 72.5%

**Q.** And the viability, T/C (second compound 3.16 µM, first compound 0.001 µM)?
**A.** 89.8%

**Q.** And the viability, T/C (second compound 3.16 µM, first compound 0.00316 µM)?
**A.** 73.9%

**Q.** What about the viability, T/C (second compound 3.16 µM, first compound 0.01 µM) of the same molecule?
**A.** 63.8%

**Q.** What about the viability, T/C (second compound 3.16 µM, first compound 0.0316 µM) of the same molecule?
**A.** 38.5%

**Q.** What about the viability, T/C (second compound 3.16 µM, first compound 0.1 µM) of the same molecule?
**A.** 10%

**Q.** What about the viability, T/C (second compound 10 µM, first compound 0.000316 µM) of the same molecule?
**A.** 64.4%

**Q.** What about the viability, T/C (second compound 10 µM, first compound 0.001 µM) of the same molecule?
**A.** 67.1%

**Q.** And the viability, T/C (second compound 10 µM, first compound 0.00316 µM)?
**A.** 64.8%

**Q.** What about the viability, T/C (second compound 10 µM, first compound 0.01 µM) of the same molecule?
**A.** 51.8%

**Q.** And the viability, T/C (second compound 10 µM, first compound 0.0316 µM)?
**A.** 29.2%

**Q.** And the viability, T/C (second compound 10 µM, first compound 0.1 µM)?
**A.** 7.41%

**Q.** What does the source list for `CCc1c2c(nc3ccc(O)cc13)-c1cc3c(c(=O)n1C2)COC(=O)[C@]3(O)CC` + NC1CCC(NC2CC2c2ccccc2)CC1?
**A.** IC50 (second compound 0.1 µM): < 0.949 nM; IC50 (second compound 0.316 µM): < 0.949 nM; IC50 (second compound 1 µM): < 0.949 nM; IC50 (second compound 3.16 µM): < 0.949 nM; IC50 (second compound 10 µM): < 0.949 nM; viability, T/C (second compound 0.1 µM, first compound 0.000949 µM): 20.5%; viability, T/C (second compound 0.1 µM, first compound 0.003 µM): 10.8%; viability, T/C (second compound 0.1 µM, first compound 0.00949 µM): 2.17%; viability, T/C (second compound 0.1 µM, first compound 0.03 µM): 0.64%; viability, T/C (second compound 0.1 µM, first compound 0.0949 µM): 0.13%; viability, T/C (second compound 0.1 µM, first compound 0.3 µM): 0.25%; viability, T/C (second compound 0.316 µM, first compound 0.000949 µM): 20.3%; viability, T/C (second compound 0.316 µM, first compound 0.003 µM): 12.4%; viability, T/C (second compound 0.316 µM, first compound 0.00949 µM): 3.03%; viability, T/C (second compound 0.316 µM, first compound 0.03 µM): 1.28%; viability, T/C (second compound 0.316 µM, first compound 0.0949 µM): 0.23%; viability, T/C (second compound 0.316 µM, first compound 0.3 µM): 0.24%; viability, T/C (second compound 1 µM, first compound 0.000949 µM): 20.2%; viability, T/C (second compound 1 µM, first compound 0.003 µM): 13.4%; viability, T/C (second compound 1 µM, first compound 0.00949 µM): 2.69%; viability, T/C (second compound 1 µM, first compound 0.03 µM): 0.95%; viability, T/C (second compound 1 µM, first compound 0.0949 µM): 1.3%; viability, T/C (second compound 1 µM, first compound 0.3 µM): 0.52%; viability, T/C (second compound 3.16 µM, first compound 0.000949 µM): 20.9%; viability, T/C (second compound 3.16 µM, first compound 0.003 µM): 10.9%; viability, T/C (second compound 3.16 µM, first compound 0.00949 µM): 2.33%; viability, T/C (second compound 3.16 µM, first compound 0.03 µM): 0.37%; viability, T/C (second compound 3.16 µM, first compound 0.0949 µM): 0.36%; viability, T/C (second compound 3.16 µM, first compound 0.3 µM): 0.53%; viability, T/C (second compound 10 µM, first compound 0.000949 µM): 20.1%; viability, T/C (second compound 10 µM, first compound 0.003 µM): 10.3%; viability, T/C (second compound 10 µM, first compound 0.00949 µM): 2.5%; viability, T/C (second compound 10 µM, first compound 0.03 µM): 0.37%; viability, T/C (second compound 10 µM, first compound 0.0949 µM): 0.19%; viability, T/C (second compound 10 µM, first compound 0.3 µM): 0.32%
